The term IC50 denotes the concentration that inhibits the measured activity by half.

Experimental findings from patent US12018027B2, “Macrocyclic derivatives acting as XIa factor inhibitor” (CHINA RESOURCES BIOPHARMACEUTICAL COMPANY LIMITED, priority 2019, dated 2024) are described below.

One series concerns the target Human Factor XIa (Homo sapiens (Human), UniProt P03951). Nature of the series: Screening assay for inhibitory activity against enzyme hFXIa (human factor XIa). Type of series: biochemical. To be noted: substrate S-2366, pH 7.4, 37° C., absorbance 405 nm. As for the experimental part:
1. Screening Assay for Inhibitory Activity against Enzyme hFXIa (Human Factor XIa)
To Test the Inhibitory Activity of the Compounds Disclosed herein Against Human Factor XIa
100 mM Tris-HCl (Sigma, Cat. No.: T2663, Lot No.: SLBG2775)
Enzyme: Human Factor XIa (Abcam, Cat No.: ab62411), total amount of 50 μg; dissolved in assay buffer and packaged.
3) Instruments and consumables
SpectraMax 340PC multifunctional microplate reader (Molecular Devices)
384-well black transparent reaction plate (Corning, Cat. No.: 3712)
Echo liquid workstation (Labcyte)
A 384-well polypropylene compound plate (Labcyte-P-05525) was used in Echo
A 384 shallow-well polypropylene compound plate (Labcyte-LP-0200, 2.5-12 μL) was used in Echo
Mutidrop automatic dispenser (Thermo Scientific)
Mutidrop consumables (Thermo Scientific-24073290)
Test compounds were each dissolved in DMSO to prepare a 10 mM solution and stored in a nitrogen cabinet.
1) Preparation for compounds
All test compounds were prepared using Echo, subjected to gradient dilution and transferred to a 384-well reaction plate at 100 nL. The reference compound and the test samples, with an initial concentration of 200 μM, were subjected to 3-fold dilution to get 10 concentrations (the final concentration was 1 μM). To high signal wells were added DMSO, and to low signal wells were added 100 μM reference compound. Reference can be made to the sample distribution for distributions of samples and control.
1) Preparation for enzyme human factor XIa
Enzyme human factor XIa was diluted to 0.5 μg/mL with assay buffer.
3) Preparation for substrate S-2306
S-2306 was prepared at a concentration of 1 mM using the assay buffer.
4) 10 μL of 0.5 μg/mL enzyme human factor XIa was added to the reaction plate using a Mutidrop automatic dispenser and the final concentration was 5 ng/well.
5) 10 μL of 1 mM S-2306 was added to the reaction plate using a Mutidrop automatic dispenser and the final concentration was 0.5 mM.
6) Centrifugation was performed at 1000 rpm for 10 s.
7) The reaction plate was incubated in SpectraMax 340PC at 37° C. for 10 min and the absorbance was measured at 405 nm.
8) Data were analyzed using GraphPad Prism 5.0.
% inhibition rate=100%×[1—(sample reading—mean of low signal wells)/(mean of high signal wells—mean of low signal wells)]
IC50 was analyzed using […]:
Y=Bottom+(Top−Bottom)/(1+10^((LogIC50−X)*Hill Slope))
Y is % inhibition rate and X is the logarithm of the sample concentration.

The subject of the next series is human plasma. Nature of the series: Human plasma in vitro aPTT (activated partial thromboplastin time). It is filed as biochemical. The procedure: 2. Testing of Human Plasma in vitro aPTT (Activated Partial Thromboplastin Time)
To test the anticoagulant effect of the compounds disclosed herein against human plasma in vitro
1) Plasma: fresh human venous blood was mixed well with 0.109 M sodium citrate at a ratio of 9:1, and then the mixture was centrifuged at 3000 rpm for 15 min. The upper plasma was collected and tested within 2-5 h.
2) Reagents: aPTT reagent (activated partial thromboplastin time kit, mindray), PT reagent (prothrombin time kit, mindray), and calcium chloride solution.
3) Instruments: coagulometer (Beijing Precil, C2000-4).
Test compounds were each dissolved in DMSO to prepare a 10 mM stock solution. The plasma was serially diluted to 400 μM, 200 μM, 100 μM, 50 μM, 25 μM, 12.5 μM, 6.25 μM, 3.125 μM, 1.563 μM, 0.781 μM, 0.390 μM and 0.195 μM with the 10 mM stock solution of each compound, and the blank control was 100% DMSO. The reagents, plasma and compounds were placed at corresponding positions in a coagulometer to detect the aPTT and PT of the compounds.
The concentrations of compounds corresponding to aPTT2× and PT2× (i.e., aPTT and PT of 2-fold blank control) were calculated by Prism curve fitting and the results are shown in Table 2 below: […]

A further series is described as follows: Pharmacokinetics in rats. It is filed as in vivo. The settings on record: male SD rats. As for the experimental part: 3. Pharmacokinetics in Rats
To determine the pharmacokinetic parameters of the compounds disclosed herein in rats
1) Experimental drug: compound 1-2;
2) Experimental animals: 4 male SD rats aged 7-9 weeks, randomly divided into 2 groups, 2 rats for each group;
3) Drug preparation: a proper amount of the drug was weighed out and dissolved in a mixed solvent of DMAC:solutol:water=10:10:80 to prepare two solutions of 0.2 mg/mL and 0.5 mg/mL, respectively;
Animals in group 1 were administered with the 0.2 mg/mL drug at a dose of 0.5 mg/kg by single injection via the tail vein, and animals in group 2 were administered with the 0.5 mg/mL compound at a dose of 3 mg/kg by gavage. Animal plasma samples were collected 0.0833 (only the tail vein injection group), 0.25, 0.5, 1, 2, 4, 6, 8 and 24 h after administration. The drug concentration in plasma samples was determined using LC-MS/MS method, and the kinetic parameters of the test drug are shown in Table 3: […]

Sequence of Human Factor XIa (P03951 388-625): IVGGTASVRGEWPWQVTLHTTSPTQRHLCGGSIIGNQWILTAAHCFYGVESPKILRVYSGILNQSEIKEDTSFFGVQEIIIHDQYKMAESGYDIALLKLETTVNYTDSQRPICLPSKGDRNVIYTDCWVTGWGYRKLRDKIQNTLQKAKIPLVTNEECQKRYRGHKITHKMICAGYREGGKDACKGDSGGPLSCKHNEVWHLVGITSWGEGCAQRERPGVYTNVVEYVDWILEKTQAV
Sequence of Human Factor XIa (P03951 19-387 partner): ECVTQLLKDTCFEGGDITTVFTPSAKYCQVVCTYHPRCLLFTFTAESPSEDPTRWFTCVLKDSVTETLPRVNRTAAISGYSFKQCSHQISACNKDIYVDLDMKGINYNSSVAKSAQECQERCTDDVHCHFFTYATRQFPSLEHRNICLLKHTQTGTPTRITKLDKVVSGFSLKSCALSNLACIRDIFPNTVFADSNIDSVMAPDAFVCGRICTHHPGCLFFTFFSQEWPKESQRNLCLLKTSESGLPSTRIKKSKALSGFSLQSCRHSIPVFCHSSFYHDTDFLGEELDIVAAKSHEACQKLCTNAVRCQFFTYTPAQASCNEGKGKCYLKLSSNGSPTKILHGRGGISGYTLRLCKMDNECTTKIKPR

At Human Factor XIa, `C[C@@H]1CCC[C@@H](c2ccc(-c3cc(Cl)ccc3-n3cc(Cl)nn3)oc2=O)c2cc(ccn2)-c2c(cnn2C(F)F)NC1=O` (single isomer, unassigned) [Compound 1-2] displayed an IC50 of 3.9 nM. The “aPTT2× (concentration giving aPTT of 2-fold blank control)” value in the series with human plasma was 0.87 µM. Also, the “Bioavailability F” value in the series “Pharmacokinetics in rats” (gavage 3 mg/kg vs tail vein injection 0.5 mg/kg) was 37.1%. Further, in “Pharmacokinetics in rats” (gavage, 3 mg/kg), the “Area under curve AUC” value came to 5.205 µM·h and the “Time of peak concentration T1/2” value was determined as 3 h. Besides, the Cmax in “Pharmacokinetics in rats” (gavage, 3 mg/kg, read-out: Peak concentration Cmax) amounted to 986 nM. For the same compound, in the series “Pharmacokinetics in rats” (tail vein injection, 0.5 mg/kg), the “Area under curve AUC” value is 2.339 µM·h, the “Clearance Cl” value amounted to 5.65 mL/min/kg, the “Half life T1/2” value was found to be 1.04 h and the “Volume of distribution Vd” value worked out at 0.533 L/kg. Moreover, in the series “Pharmacokinetics in rats” (tail vein injection, 0.5 mg/kg, read-out: Initial concentration C0), the C0 turned out to be 1800 nM.
At Human Factor XIa, `C[C@H]1CCC[C@@H](c2ccc(-c3cc(Cl)ccc3-n3cc(Cl)nn3)oc2=O)c2cc(ccn2)-c2c(cnn2C(F)F)NC1=O` (single isomer, unassigned) [Compound 1-4] yielded an IC50 of 34.1 nM.
In the case of `C[C@@H]1CCC[C@@H](c2ccc(-c3cc(Cl)ccc3-n3cc(C(F)F)nn3)oc2=O)c2cc(ccn2)-c2c(cnn2C(F)F)NC1=O` (single isomer, unassigned) [Compound 3-1], at Human Factor XIa, 3.81 nM corresponded to half-maximal inhibition (IC50). Besides, the “aPTT2× (concentration giving aPTT of 2-fold blank control)” value in the series with human plasma is 1.37 µM.
For `C[C@@H]1CCC[C@@H](c2ccc(-c3cc(Cl)ccc3-n3cc(C4CC4)nn3)oc2=O)c2cc(ccn2)-c2c(cnn2C(F)F)NC1=O` (single isomer, unassigned) [Compound 4-1], it took 21.7 nM to reach half-maximal inhibition at Human Factor XIa (IC50).
On the same count and under the same terms, to `C[C@@H]1CCC[C@@H](c2ccc(-c3cc(Cl)ccc3-n3cc(Cl)nn3)n(C)c2=O)c2cc(ccn2)-c2c(cnn2C(F)F)NC1=O` (single isomer, unassigned) [Compound 5-1] belongs 8.22 nM.
`CCOc1cn(-c2ccc(Cl)cc2-c2ccc([C@@H]3CCC[C@@H](C)C(=O)Nc4cnn(C(F)F)c4-c4ccnc3c4)c(=O)o2)nn1` (single isomer, unassigned) [Compound 6-2]: at Human Factor XIa, half-maximal inhibition (IC50) required 20.4 nM.
At Human Factor XIa, `C[C@@H]1CCC[C@@H](c2ccc(-c3cc(Cl)ccc3-n3ccnn3)oc2=O)c2cc(ccn2)-c2c(cnn2C(F)F)NC1=O` [Compound 2-1] gave an IC50 of 3.39 nM. Also, the “aPTT2× (concentration giving aPTT of 2-fold blank control)” value in the series on human plasma worked out at 0.65 µM.
On Human Factor XIa, `C[C@@H]1CCC[C@H](c2ccc(-c3cc(Cl)ccc3-n3ccnn3)oc2=O)c2cc(ccn2)-c2c(cnn2C(F)F)NC1=O` [Compound 2-2] came in with an IC50 of 10.7 nM.
